Assays:
[1] = tested on: human colorectal adenocarcinoma cells (DLD-1); test: MTT proliferation assay, DLD-1 cells (Examples 2 and 3); assay type: cell-based
Protocol: Test samples shown below in Table 3 were assessed for their ability to modulate the viability and proliferation of human colorectal adenocarcinoma cells (DLD-1) as assessed by the MTT assay. A positive control, 5-Fluorouracil (5-FU) was included in addition to an unsupplemented cell control (negative control) in the study. All samples were normalized to 200 μg/ml total solids.
Thus, DLD-1 colon cancer cells were exposed to: • a tincture originally containing 25% solids by mass propolis which then diluted in the test solution to give 200 μg/ml total solids. The tincture was used to manufacture the cyclodextrin-encapsulated propolis samples. • Cyclodextrin propolis (γ-cyclodextrin encapsulated with 25% propolis tincture), CD1 from Table 2 in Example 1 • Cyclodextrin propolis+CAPE (γ-cyclodextrin encapsulated 25% propolis tincture with added CAPE to double the concentration of CAPE relative to the tincture), CD2 from Table 2 in Example 1 • γ-cyclodextrin alone (CAVAMAX W8 food gamma cyclodextrin) • 5-flurorouracil at 7.50 ng/ml as a positive control
All cyclodextrin-encapsulated samples and γ-cyclodextrin alone were assayed on a per weight of sample, and so contain at most 50 μg/ml total solids as propolis.
Human colorectal adenocarcinoma epithelial cell lines were revived from cryostorage and cultured in the presence of the test and reference samples. The culture conditions for the cells were those described by the supplier of the cells (ATCC). An MTT assay was then performed on the cultures to determine the effect of the samples on the cell proliferation.
• 1. The human colorectal adenocarcinoma cells (DLD-1) obtained from the American Type Culture Collection USA were revived from cryostorage. • 2. Following initial propagation using the media described above (see Medium Preparation), the culture was subcultured using the trypsin-EDTA as follows. The media was removed and 5 ml of the trypsin-EDTA solution added and incubated at 37° C. for 5 min or until all the cells had detached. The trypsin was neutralised by adding an equal volume of DMEM medium and the culture centrifuged at 300 g (1200 rpm) for 5 min at 4° C. • 3. The supernatant was decanted and the cell pellets resuspended in medium DMEM, FBS (10%), penicillin (100 units/ml), streptomycin (100 μg/ml). The cells were cultured at 37° C. in 5% CO2/95% air. • 4. After reaching confluence, the cells were detached using trypsin-EDTA and centrifuged as described in 2 above. • 5. The supernatants were discarded and the cells resuspended in DMEM and supplements as described in 3 above at 7.5×10^4 cells per ml. A total volume of 23 mls of the cell suspension was required. • 6. Into each well of three 96 well plates, 180 μl of the cells ([…]) or medium was added as indicated in the plate layout below. The plates were incubated at 5% CO2/95% air at 37° C. for 8 h which was sufficient to allow the cells to strongly adhere. • 7. To each well, 20 μl of each of the test samples or positive control was added as indicated in the diagrams above. To the wells labelled ‘medium’ or ‘cells only’, 20 μl of 15% ETOH/HBSS was added. Each sample was assessed in replicates of 6, while the controls on all three plates were assessed in replicates of 9 (combined triplicates) • 8. The total volume in each well was 200 μl. • 9. The plates were incubated at 37° C. in 5% CO2/95% air for 19 h.
• 1. On completion of the incubation, 20 μl of MTT working solution (5 mg/ml) was added to all wells and incubated for 2 hr at 37° C. in 5% CO2/95% air. • 2. 100 μl of MTT lysis buffer was then added and the plates incubated for 3 hr at 37° C. on a shaker in 5% CO2/95% air, followed by pipetting to break up and dissolve the crystals until fully solubilized. The plates were centrifuged at 1200 rpm for 10 minutes to pelletize any remaining insoluble material. From each well 200 μl aliquots were transferred to fresh 96 well plates. The plates were read by a VersaMax microplate reader at 570 nm. • 3. […]

[2] = tested on: human oesophageal squamous cell carcinoma cell line (KYSE-30); test: Gastro-intestinal cancer anti-proliferative MTT assay, KYSE-30 (Examples 5-9); assay type: cell-based; conditions: Example 9
Protocol: Sample CD5 γ-cyclodextrin as prepared in Example 1 was assessed for its ability to modulate the viability and proliferation of human colorectal adenocarcinoma cells (DLD-1); human colon cancer cell line (HCT-116); human gastric carcinoma cell line (NCI-N87); and human oesophageal squamous cell carcinoma cell line (KYSE-30) as assessed by the MTT assay. The positive control, 5-fluorouracil (5-FU) was included at three concentrations; in addition to an unsupplemented cell control as a negative control in the study. [Do we include test compounds for comparison?.
The four human gastrointestinal carcinoma cell lines were revived from cryostorage and cultured in the presence of the test and reference samples. An MTT assay was then performed on the cultures to determine the effect of the samples on the cell viability and proliferation.
The test sample, and all other test samples in Examples 5-8 were dissolved in 15% ethanol/Hanks Balanced Salt Solution (ETOH)/HBSS to a concentration of 2 mg/mL solids. In the assay the final concentration of the samples was 200 μg/ml with a final EtOH concentration of 1.5%.
• 1. Human colorectal adenocarcinoma cells (ATCC CCI-221, DLD-1)(ATCC, Bethesda, Md., USA) • 2. Human gastric carcinoma cells (ATCC CRL-5822, NCI-N87)(ATCC, Bethesda, Md., USA) • 3. Human oesophageal squamous cell carcinoma (ECACC, KYSE-30)(Sigma Aldrich, Auckland, NZ) • 4. Human colon carcinoma cells (ECACC HCT-116)(Sigma Aldrich, Auckland, NZ) • 5. Penicillin-streptomycin solution: 10000 units/ml penicillin, 10 mg/ml streptomycin in 0.9% NaCl (Sigma Cat #P-0781). Stored at −20° C. • 6. For DLD-1 cells: DMEM culture medium (Invitrogen Cat #12100-046). Stored at 4° C. • 7. For NCI-N87 cells: RPMI-1640 medium modified to contain 2 mM L-glutamine, 10 mM HEPES, 1 mM sodium pyruvate, 4500 mg/L glucose, and 1500 mg/L sodium bicarbonate (Sigma R6504). Stored at 4° C. • 8. For KYSE-410 cells: RPMI-1640 medium modified to contain 2 mM L-glutamine (Sigma R6504). Stored at 4° C. • 9. For HCT-116 cells: McCoy's 5A medium modified to contain 2 mM L-glutamine (Sigma M48792). Stored at 4° C. • 10. […]

[3] = tested on: HCT-116-R cells (butyrate resistant, derived from HCT-116); test: Apoptotic assay (PE Annexin V, flow cytometry), butyrate-resistant HCT-116-R; assay type: cell-based, human; conditions: for % Apoptosis: HCT-116-R, 50 hours
Protocol: (§1) The human colorectal cell line HCT-116 was obtained from the American Type Culture Collection (Rockville, Md.). The butyrate resistant cell line was derived from HCT-116 by culturing the parental cells in increasing concentrations of butyrate as previously described in Bordonaro […]. The activation of beta-catenin by Wnt signaling mediates the effects of histone deacetylase inhibitors. Exp Cell Res. 2007; 313:1652-66 (including references therein). Colorectal cells were grown in alpha-MEM medium with 10% fetal bovine serum and antibiotics. The concentration of CAPE in the propolis-cyclodextrin complex CD1 was 1.79 μg/100 μg propolis solid encapsulated in the cyclodextrin, or 0.41 μg/100 μg cyclodextrin complex. Stock solutions were prepared in dimethyl sulfoxide, except for butyrate, which was dissolved in water at 1 M concentration. […] All cells (floating and attached) were harvested and stained for apoptotic and necrotic markers using a PE Annexin V Apoptosis Detection Kit I (BD Biosciences, #559763). Flow cytometry analyses were carried out with FACS Aria II and DiVa software. […] All data are presented as mean±standard deviation from at least three sets of independent experiments. Student T-test analysis was used to determine the significance of statistical differences. Differences were considered significant at P<0.05.

[4] = tested on: human colorectal cancer cell line HCT-116; test: Apoptotic assay (PE Annexin V, flow cytometry), HCT-116; assay type: cell-based; conditions: for % Apoptosis: 50 hours
Protocol: as §1

OC[C@H]1O[C@@H]2O[C@H]3[C@H](O)[C@@H](O)[C@@H](O[C@H]4[C@H](O)[C@@H](O)[C@@H](O[C@H]5[C@H](O)[C@@H](O)[C@@H](O[C@H]6[C@H](O)[C@@H](O)[C@@H](O[C@H]7[C@H](O)[C@@H](O)[C@@H](O[C@H]8[C@H](O)[C@@H](O)[C@@H](O[C@H]9[C@H](O)[C@@H](O)[C@@H](O[C@H]1[C@H](O)[C@H]2O)O[C@@H]9CO)O[C@@H]8CO)O[C@@H]7CO)O[C@@H]6CO)O[C@@H]5CO)O[C@@H]4CO)O[C@@H]3CO [CAVAMAX W8 Food gamma Cyclodextrin, gamma-cyclodextrin]
% inhibition ([1]; DLD-1, 200 μg/ml): 9.11%
Mean (OD 570 nm) ([1]; DLD-1, 200 μg/ml): 0.6405
inhibition at 200 µg/mL ([1]; Homo sapiens, DLD-1, DLD-1, 200 μg/ml): 9.1%
inhibition at 200 µg/mL ([2]; Homo sapiens, KYSE-30, KYSE-30, 200 μg/ml): 8.8%
Mean (OD 570 nm) ([2]; KYSE-30, 200 μg/ml): 0.3056
% inhibition ([2]; KYSE-30, 200 μg/ml, listed as Gamma-CD): 8.85%

O=c1c(O)c(-c2ccccc2)oc2cc(O)cc(O)c12 [Galangin]
Mean (OD 570 nm) ([1]; DLD-1, 200 μg/ml): 0.1411

O=C(/C=C/c1ccc(O)c(O)c1)OCCc1ccccc1 [CAPE, caffeic acid phenethyl ester]
% Apoptosis ([3]; 1.2 ug/ml): 9.7%
apoptosis relative to the negative control ([3]; HCT-R, CAPE 1.2 ug/ml alone): did not undergo significant apoptosis
% Apoptosis ([4]; HCT-116, 1.2 ug/ml): 18.3%
apoptosis relative to the negative control ([4]; HCT-116, CAPE 1.2 ug/ml): no significant increase in apoptosis
Mean (OD 570 nm) ([1]; DLD-1, 200 μg/ml): 0.0777

CCCC(=O)O [butyrate]
% Apoptosis ([3]; 5 mM): 11.2%
% Apoptosis ([4]; HCT-116, 5 mM): 57.5%
apoptosis relative to cells only ([4]; HCT-116, butyrate 5 mM): 35%

O=c1cc(-c2ccccc2)oc2cc(O)cc(O)c12 [Chrysin]
Mean (OD 570 nm) ([1]; DLD-1, 200 μg/ml): 0.1233

Source: patent publication US20160051594A1, “Therapeutic Compositions and Uses Thereof” (MANUKA HEALTH NEW ZEALAND LIMITED, priority 2013, published 2016)
